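GI50: concentration for 50% inhibition of growth. TGI: total growth inhibition.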
Columns and labels:
Test in all cases: NCI-60 cell line screen, 384-well format
SF-268 CNS = tested on: SF-268 CNS
CCRF-CEM leukemia = tested on: CCRF-CEM leukemia
RXF 393 renal = tested on: RXF 393 renal
MDA-MB-468 breast = tested on: MDA-MB-468 breast
HS 578T breast = tested on: HS 578T breast
A498 renal = tested on: A498 renal
LOX IMVI melanoma = tested on: LOX IMVI melanoma
OVCAR-3 ovarian = tested on: OVCAR-3 ovarian
DU-145 prostate = tested on: DU-145 prostate
UO-31 renal = tested on: UO-31 renal
OVCAR-8 ovarian = tested on: OVCAR-8 ovarian
MDA-MB-231 breast = tested on: MDA-MB-231 breast
K-562 leukemia = tested on: K-562 leukemia
786-0 renal = tested on: 786-0 renal
SK-MEL-28 melanoma = tested on: SK-MEL-28 melanoma
HL-60(TB) leukemia = tested on: HL-60(TB) leukemia
HOP-62 NSCLC = tested on: HOP-62 NSCLC
NCI-H23 lung = tested on: NCI-H23 lung
SR leukemia = tested on: SR leukemia
NCI/ADR-RES ovarian = tested on: NCI/ADR-RES ovarian
NCI-H522 lung = tested on: NCI-H522 lung
SK-MEL-5 melanoma = tested on: SK-MEL-5 melanoma
SW-620 colon = tested on: SW-620 colon
SN12C renal = tested on: SN12C renal
SK-OV-3 ovarian = tested on: SK-OV-3 ovarian
U251 glioblastoma = tested on: U251 glioblastoma
MCF7 breast = tested on: MCF7 breast
MDA-MB-435 melanoma = tested on: MDA-MB-435 melanoma
SNB-75 CNS = tested on: SNB-75 CNS
CAKI-1 renal = tested on: CAKI-1 renal
OVCAR-5 ovarian = tested on: OVCAR-5 ovarian
SF-539 CNS = tested on: SF-539 CNS
A549 NSCLC = tested on: A549 NSCLC
NCI-H226 lung = tested on: NCI-H226 lung
BT-549 breast = tested on: BT-549 breast
OVCAR-4 ovarian = tested on: OVCAR-4 ovarian
ACHN renal = tested on: ACHN renal
UACC-62 melanoma = tested on: UACC-62 melanoma
UACC-257 melanoma = tested on: UACC-257 melanoma
MALME-3M melanoma = tested on: MALME-3M melanoma
TK-10 renal = tested on: TK-10 renal
SF-295 CNS = tested on: SF-295 CNS
NCI-H460 NSCLC = tested on: NCI-H460 NSCLC
T-47D breast = tested on: T-47D breast
SNB-19 CNS = tested on: SNB-19 CNS
SK-MEL-2 melanoma = tested on: SK-MEL-2 melanoma
M14 melanoma = tested on: M14 melanoma
HCC-2998 colon = tested on: HCC-2998 colon
NCI-H322M lung = tested on: NCI-H322M lung
MOLT-4 leukemia = tested on: MOLT-4 leukemia
HOP-92 NSCLC = tested on: HOP-92 NSCLC
PC-3 prostate = tested on: PC-3 prostate
HCT-15 colon = tested on: HCT-15 colon
COLO 205 colon = tested on: COLO 205 colon
RPMI-8226 leukemia = tested on: RPMI-8226 leukemia
KM12 colon = tested on: KM12 colon
IGROV1 ovarian = tested on: IGROV1 ovarian
EKVX NSCLC = tested on: EKVX NSCLC
HCT-116 colon = tested on: HCT-116 colon
HT29 colon = tested on: HT29 colon

## O=C(Cc1ccccc1)Nc1nnc(CCSCCc2nnc(NC(=O)Cc3ccccc3)s2)s1
SF-268 CNS
  GI50: 2.16 µM
  TGI: 9.86 µM
CCRF-CEM leukemia
  GI50: 11.6 µM
  TGI: > 100 µM
RXF 393 renal
  GI50: 1.42 µM
  TGI: 4.88 µM
MDA-MB-468 breast
  GI50: 29.7 µM
  TGI: > 83.2 µM
HS 578T breast
  GI50: 0.9 µM
  TGI: 3.37 µM
A498 renal
  GI50: 3.13 µM
  TGI: 11.9 µM
LOX IMVI melanoma
  GI50: 3.99 µM
  TGI: 23.1 µM
OVCAR-3 ovarian
  GI50: 7.24 µM
  TGI: > 60.5 µM
DU-145 prostate
  GI50: 14 µM
  TGI: > 100 µM
UO-31 renal
  GI50: 46 µM
  TGI: > 100 µM
OVCAR-8 ovarian
  GI50: 4.38 µM
  TGI: 17.9 µM
MDA-MB-231 breast
  GI50: 3.07 µM
  TGI: 28.9 µM
K-562 leukemia
  GI50: 10.1 µM
  TGI: > 100 µM
786-0 renal
  GI50: 2.27 µM
  TGI: 8.96 µM
SK-MEL-28 melanoma
  GI50: 21.7 µM
  TGI: > 61.2 µM
HL-60(TB) leukemia
  GI50: 28.3 µM
  TGI: > 100 µM
HOP-62 NSCLC
  GI50: 2.92 µM
  TGI: 11.9 µM
NCI-H23 lung
  GI50: 16.1 µM
  TGI: 39.7 µM
SR leukemia
  GI50: 0.544 µM
  TGI: > 100 µM
NCI/ADR-RES ovarian
  GI50: > 100 µM
  TGI: > 100 µM
NCI-H522 lung
  GI50: 2.92 µM
  TGI: 15.1 µM
SK-MEL-5 melanoma
  GI50: 10.4 µM
  TGI: 52.5 µM
SW-620 colon
  GI50: > 60.9 µM
  TGI: > 100 µM
SN12C renal
  GI50: 3.29 µM
  TGI: 19.5 µM
SK-OV-3 ovarian
  GI50: 15.5 µM
  TGI: 40.4 µM
U251 glioblastoma
  GI50: 3.13 µM
  TGI: 21.4 µM
MCF7 breast
  GI50: > 28.5 µM
  TGI: > 75.1 µM
MDA-MB-435 melanoma
  GI50: 30 µM
  TGI: > 100 µM
SNB-75 CNS
  GI50: 8.91 µM
  TGI: 27.2 µM
CAKI-1 renal
  GI50: 8.03 µM
  TGI: > 41 µM
OVCAR-5 ovarian
  GI50: 16.7 µM
  TGI: > 100 µM
SF-539 CNS
  GI50: 3.16 µM
  TGI: 18.2 µM
A549 NSCLC
  GI50: 1.06 µM
  TGI: 5.54 µM
NCI-H226 lung
  GI50: 7.56 µM
  TGI: 31.3 µM
BT-549 breast
  GI50: 9.85 µM
  TGI: 30.5 µM
OVCAR-4 ovarian
  GI50: 13.2 µM
  TGI: 40.5 µM
ACHN renal
  GI50: > 30 µM
  TGI: > 100 µM
UACC-62 melanoma
  GI50: 8.39 µM
  TGI: 31.1 µM
UACC-257 melanoma
  GI50: 13.5 µM
  TGI: > 76.6 µM
MALME-3M melanoma
  GI50: 16.1 µM
  TGI: 45.5 µM
TK-10 renal
  GI50: 18 µM
  TGI: 62.2 µM
SF-295 CNS
  GI50: 9.57 µM
  TGI: 26.4 µM
NCI-H460 NSCLC
  GI50: 10.8 µM
  TGI: > 100 µM
T-47D breast
  GI50: 27.3 µM
  TGI: > 88.3 µM
SNB-19 CNS
  GI50: 19.4 µM
  TGI: 48 µM
SK-MEL-2 melanoma
  GI50: 3.07 µM
  TGI: 10.7 µM
M14 melanoma
  GI50: > 43.4 µM
  TGI: > 88.8 µM
HCC-2998 colon
  GI50: 39.7 µM
  TGI: > 100 µM
NCI-H322M lung
  GI50: 0.393 µM
  TGI: 2.21 µM
MOLT-4 leukemia
  GI50: > 39.2 µM
  TGI: > 100 µM
HOP-92 NSCLC
  GI50: 3.05 µM
  TGI: 14.8 µM
PC-3 prostate
  GI50: 13.4 µM
  TGI: 35 µM
HCT-15 colon
  GI50: > 100 µM
  TGI: > 100 µM
COLO 205 colon
  GI50: > 100 µM
  TGI: > 100 µM
RPMI-8226 leukemia
  GI50: 1.42 µM
KM12 colon
  GI50: 1.94 µM
  TGI: > 100 µM
IGROV1 ovarian
  GI50: 29.1 µM
  TGI: > 94 µM
EKVX NSCLC
  GI50: 17.2 µM
  TGI: > 92.9 µM
HCT-116 colon
  GI50: > 72.6 µM
  TGI: > 100 µM
HT29 colon
  GI50: > 100 µM
  TGI: > 100 µM

## COc1cc(Nc2ncc3c(n2)-c2ccc(Cl)cc2C(c2c(F)cccc2OC)=NC3)ccc1C(=O)O
SF-268 CNS
  GI50: 0.0113 µM
  TGI: 0.0549 µM
CCRF-CEM leukemia
  GI50: 0.0192 µM
  TGI: 0.0773 µM
RXF 393 renal
  GI50: 0.0513 µM
  TGI: 7.31 µM
MDA-MB-468 breast
  GI50: 0.0199 µM
  TGI: 0.0534 µM
HS 578T breast
  GI50: 0.0403 µM
  TGI: 12.4 µM
A498 renal
  GI50: 0.0833 µM
  TGI: 29.6 µM
LOX IMVI melanoma
  GI50: 0.725 µM
  TGI: 17.8 µM
OVCAR-3 ovarian
  GI50: 0.0915 µM
  TGI: 14.6 µM
DU-145 prostate
  GI50: 10.6 µM
  TGI: 26.6 µM
UO-31 renal
  GI50: 4.32 µM
  TGI: 20.7 µM
OVCAR-8 ovarian
  GI50: 7.27 µM
  TGI: 36.9 µM
MDA-MB-231 breast
  GI50: 2.72 µM
  TGI: 23.6 µM
K-562 leukemia
  GI50: 0.0367 µM
  TGI: 11.5 µM
SK-MEL-28 melanoma
  GI50: 13.2 µM
  TGI: 51.7 µM
HOP-62 NSCLC
  GI50: 0.179 µM
  TGI: 31.9 µM
NCI-H23 lung
  GI50: 1.26 µM
  TGI: 14.9 µM
NCI/ADR-RES ovarian
  GI50: 0.369 µM
  TGI: 31.4 µM
SW-620 colon
  GI50: 0.202 µM
  TGI: 28.1 µM
SN12C renal
  GI50: 0.0522 µM
  TGI: 17 µM
SK-OV-3 ovarian
  GI50: 4.11 µM
  TGI: 22.6 µM
MCF7 breast
  GI50: 1.7 µM
  TGI: > 100 µM
SNB-75 CNS
  GI50: 3.1 µM
  TGI: 17 µM
OVCAR-5 ovarian
  GI50: 4.4 µM
  TGI: 30.3 µM
SF-539 CNS
  GI50: 0.0651 µM
  TGI: 25.2 µM
A549 NSCLC
  GI50: 0.0795 µM
  TGI: 16.8 µM
NCI-H226 lung
  GI50: 1.28 µM
  TGI: 10.9 µM
BT-549 breast
  GI50: 0.0986 µM
  TGI: 20.1 µM
OVCAR-4 ovarian
  GI50: 9.41 µM
  TGI: 50.4 µM
ACHN renal
  GI50: 1.81 µM
  TGI: 19.7 µM
UACC-62 melanoma
  GI50: 0.768 µM
  TGI: 35.4 µM
UACC-257 melanoma
  GI50: 13.7 µM
  TGI: 52.6 µM
MALME-3M melanoma
  GI50: 17.9 µM
  TGI: 60.7 µM
TK-10 renal
  GI50: 4.77 µM
  TGI: 21.7 µM
SF-295 CNS
  GI50: 0.088 µM
  TGI: 24.6 µM
SNB-19 CNS
  GI50: 9.37 µM
  TGI: 61.9 µM
HCC-2998 colon
  GI50: 3.24 µM
  TGI: 47.9 µM
NCI-H322M lung
  GI50: 19.3 µM
  TGI: > 100 µM
MOLT-4 leukemia
  TGI: 0.0209 µM
HOP-92 NSCLC
  GI50: 2.18 µM
  TGI: 17.2 µM
PC-3 prostate
  GI50: 12 µM
  TGI: 45.2 µM
HCT-15 colon
  GI50: 0.0581 µM
  TGI: 37.2 µM
COLO 205 colon
  GI50: 0.0376 µM
  TGI: > 100 µM
KM12 colon
  GI50: 0.0838 µM
  TGI: > 100 µM
IGROV1 ovarian
  GI50: 0.743 µM
  TGI: 13.5 µM
HCT-116 colon
  GI50: 0.0293 µM
  TGI: 25.2 µM
HT29 colon
  GI50: 1.49 µM
  TGI: > 100 µM
